Values of other authors as cited in patent publication US7135196B2, “Iron compositions” (Vitra Pharmaceuticals Limited, priority 2000, dated 2006).

Question: For `O=C([O-])/C=C/C(=O)[O-].[Fe+2]` [fumarate, ferrous fumarate], which solubility in water is on record?
Answer: poorly and slowly soluble
